Data reported in patent US20130136811A1, “Compositions and Methods for Pain Reduction” (priority 2010, published 2013).
Several values for one entry are separate records, joined by “and”; a condition that tells them apart may be missing. Identical values can stand only once.

Experiments:
[1] = test system: primary cultures of mouse cortical neurons; assay: NMDAR-mediated excitotoxicity, LDH cell death assay; type: cell-based; details: for neuroprotective effect (% protection): NMDA 200 μM 5 minutes, glycine 10 μM, LDH 24 hours after
Method: Studies were carried out to determine whether application of Wogonin can prevent N-methyl-D-Aspartate receptor (NMDAR)-mediated excitotoxicity in primary neuronal cultures from mouse cortex in vitro. In particular, detailed dose/response curves of Wogonin applied together with and for the duration of application of NMDA were generated. NMDAR-induced cytotoxicity can lead to fulminant cell death, necrosis, or a delayed form of cell death (apoptosis). While necrosis leads to immediate cell lysis, apoptotic cell death develops over time and is distinguished by a number of criteria such as characteristic morphological changes and DNA fragmentation. The LDH assay was used for the determination of cell death. This assay assesses primary necrosis as well as secondary, necrotic cell death subsequent to apoptosis.
For these experiments, cytotoxicity assays were conducted in primary cultures of mouse cortical neurons after 10 days in vitro using an art-recognized assay systema (Sun X, Chan L N, Gong X, Sucher N J. N-methyl-D-Aspartate receptor antagonist activity in traditional Chinese stroke medicines. NeuroSignals, 2003; 12:31-38.) Cultured neurons were exposed to NMDA (200 μM; 5 minutes) and co-agonist glycine (10 μM) in the nominal absence of magnesium and the presence of increasing concentrations of Wogonin. Measurements were performed for each dose of Wogonin in triplicate in at least three independent experiments. Wogonin was added to the culture in three different ways: 1) before, concomitant with and after NMDA, 2) concomitant with and after NMDA and 3) after NMDA. Twenty-four hours after exposure to NMDA cell death is determined by colorimetric lactate dehydrogenase (LDH) assay.

[2] = test system: mouse formalin pain model; assay: mouse formalin pain model (paw licking); type: in vivo; details: for Duration of Licking: 200 mg/kg, individual animals 01-08; for Area Under the Curve, Drug Treated: 200 mg/kg i.p.
Method: The formalin test for antinociceptive activity is described in numerous publications, e.g., Hunskaar, S. O. B. Fasmer, and K. Hole, J. Neurosci. Methods 14: 69-76 (1985). The formalin test is a chemically-induced tonic pain model in which biphasic changes of nociceptive behavior are assessed and spinal/supraspinal plasticity of nociception is considered as a molecular basis for neuropathic pain particularly during the second (late) phase of the test, during which most clinically used drugs against neuropathic pain are active. The formalin test is accepted as an art recognized model of persistent clinical pain.
The formalin test (Wheeler-Aceto H, Porreca F, Cowan A. The rat paw formalin test: comparison of noxious agents. Pain 1990; 40:229-38) involves injection of 0.5% formalin into the mouse hind paw. The injection elicits a distinct biphasic behavioral profile in response to the formalin injection characterized by licking of the affected paw, and the number of licks is measured as a proxy for perceived pain. The first (acute) phase corresponds to the direct stimulation of peripheral fibers, while the second (inflammatory) phase is caused by the release of inflammatory mediators from the damaged tissue and nerve endings. Thus, this model is ideally suited to test the efficacy of Wogonin against the acute and chronic hyper-responsive neuronal discharges following activation of peripheral nerve fibers.
The results of the formalin test are given both as raw data (“Response”) and in an aggregate, analyzed form (“Analysis”). In the Response section, each Trial involves sixteen animals, eight controls given an i.p. injection of vehicle and eight given Wogonin at a specified dose. The data recorded for each animal is the amount of time spent licking the affected hind paw in a two-minute period. These two-minute periods occur at five-minute intervals and continue for […]. […] From this plot, the area under the cure (AUC) is determined for each animal during both the acute and inflammatory stages. The AUC for each phase is shown in the analysis section of the data sheet for both control and Wogonin-treated animals. The AUC for each Wogonin-treated animal is compared to the average result from the control group, yielding an average percent of control (reported with the SEM and p value). Significant reductions in this number indicate a reduction in licking, and, presumably, a reduction of perceived pain.
Male Swiss Webster NIH mice (20-30 g; Harlan, San Diego, Calif.) were used in the experiments described herein. Food was withdrawn on the day of experiment. Mice were placed in Plexiglass jars for at least 1 hour to accommodate to the environment. Following the accommodation period, mice were weighed and given Wogonin administered intraperitoneal (i.p.) or the appropriate volume of vehicle (10% Tween-80). Fifteen minutes after the i.p. dosing, mice were injected with formalin (20 μL of 5% formaldehyde solution in saline) into the dorsal surface of the right hind paw. Mice were transferred to the Plexiglass jars and monitored for the amount of time spent licking or biting the injected paw. Periods of licking and biting were recorded in 5 minute intervals for 40 minutes after the formalin injection. All experiments were done in a blinded manner. The early phase (acute) of the formalin response is measured as licking/biting between 0-10 minutes, and the late phase (inflammatory) is measured from 10-40 minutes. Differences between vehicle and Wogonin-treated groups are analyzed by one-way analysis of variance (ANOVA). A P value <0.05 is considered significant. Activity in blocking the acute and second phase of formalin-induced paw-licking activity is indicative that compounds are efficacious for acute and chronic pain. A significant response to both the acute and the inflammatory phases of the test was observed.

## COc1c(O)cc(O)c2c(=O)cc(-c3ccccc3)oc12 [Wogonin, 5,7-dihydroxy-8-methoxyflavone]
[1]; 10^−4 M Wogonin
  neuroprotective effect (% protection): > 75%
[1]; 10^−9 M Wogonin
  neuroprotective effect (% protection): 0%
[1]; Cortical neurone, mouse cortical neurons, LDH assay, read-out: IC50, inhibition of neuronal death on exposure to N-methyl-D-aspartate
  IC50: 2 µM
[2]; 0 mm
  Duration of Licking: 0.00 sec (3×) and 35.48 sec and 21.75 sec and 53.96 sec and 44.26 sec and 32.29 sec
[2]; 5 min
  Duration of Licking: 0.00 s
[2]; 10 min
  Duration of Licking: 0.00 s
[2]; 20 min
  Duration of Licking: 0.00 sec (7×) and 16.00 sec
[2]; 25 min
  Duration of Licking: 0.00 sec (5×) and 3.89 sec and 20.61 sec and 10.96 sec
[2]; 30 min
  Duration of Licking: 0.00 sec (4×) and 29.12 sec and 55.07 sec and 2.95 sec and 37.69 sec
[2]; 35 min
  Duration of Licking: 0.00 sec (6×) and 21.24 sec and 12.73 sec
[2]; 40 min
  Duration of Licking: 0.00 sec (6×) and 20.18 sec and 27.36 sec
[2]; Acute phase
  Area Under the Curve, Drug Treated: 58.7
[2]; Inflammatory phase
  Area Under the Curve, Drug Treated: 146.3
[2]; mouse models
  overt toxicity: Overt toxicity was not seen
